Measured values: ChEMBL document CHEMBL3585263, “Novel Octahydropyrrolo[3,4-c]pyrroles Are Selective Orexin-2 Antagonists: SAR Leading to a Clinical Candidate” (J Med Chem, 2015)

Tests used:
[1] = target: T1, Orexin receptor type 2 (Rattus norvegicus, UniProt P56719); experiment: Binding affinity to rat OX2 receptor
T1 sequence (P56719 whole entry): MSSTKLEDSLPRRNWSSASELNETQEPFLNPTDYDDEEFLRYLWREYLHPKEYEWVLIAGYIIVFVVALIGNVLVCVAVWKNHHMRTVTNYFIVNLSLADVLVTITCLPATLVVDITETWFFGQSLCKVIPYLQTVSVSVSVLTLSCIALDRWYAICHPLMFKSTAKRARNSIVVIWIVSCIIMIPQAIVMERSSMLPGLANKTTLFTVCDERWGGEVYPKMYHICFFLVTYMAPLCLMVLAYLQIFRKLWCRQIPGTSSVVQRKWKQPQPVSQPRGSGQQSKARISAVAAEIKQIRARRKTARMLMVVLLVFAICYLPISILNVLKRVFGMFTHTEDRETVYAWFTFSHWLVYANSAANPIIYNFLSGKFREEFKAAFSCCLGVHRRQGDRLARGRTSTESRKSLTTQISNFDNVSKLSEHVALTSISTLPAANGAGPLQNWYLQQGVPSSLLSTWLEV

[2] = target: T2, Orexin/Hypocretin receptor type 1 (Homo sapiens, UniProt O43613); experiment: Binding affinity to human OX1 receptor
T2 sequence (O43613 whole entry): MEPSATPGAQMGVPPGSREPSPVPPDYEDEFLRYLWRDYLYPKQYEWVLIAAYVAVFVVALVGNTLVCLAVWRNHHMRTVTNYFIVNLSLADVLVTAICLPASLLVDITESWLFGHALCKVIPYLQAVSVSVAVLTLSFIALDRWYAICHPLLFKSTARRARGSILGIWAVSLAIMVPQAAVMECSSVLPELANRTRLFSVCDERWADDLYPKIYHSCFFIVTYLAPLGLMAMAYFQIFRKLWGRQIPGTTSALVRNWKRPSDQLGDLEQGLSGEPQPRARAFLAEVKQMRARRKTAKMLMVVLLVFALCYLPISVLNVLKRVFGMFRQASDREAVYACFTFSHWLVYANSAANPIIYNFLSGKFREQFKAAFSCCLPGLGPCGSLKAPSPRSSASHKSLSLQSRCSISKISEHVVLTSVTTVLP

[3] = tested on: Rattus norvegicus; experiment: Ex vivo OX2 receptor occupancy in Sprague-Dawley rat brain at 10 mg/kg, po after 30 mins by autoradiographic analysis; type: functional
[4] = target: T3, Orexin receptor type 2 (Homo sapiens, UniProt O43614); experiment: Binding affinity to human OX2 receptor
T3 sequence (O43614 whole entry): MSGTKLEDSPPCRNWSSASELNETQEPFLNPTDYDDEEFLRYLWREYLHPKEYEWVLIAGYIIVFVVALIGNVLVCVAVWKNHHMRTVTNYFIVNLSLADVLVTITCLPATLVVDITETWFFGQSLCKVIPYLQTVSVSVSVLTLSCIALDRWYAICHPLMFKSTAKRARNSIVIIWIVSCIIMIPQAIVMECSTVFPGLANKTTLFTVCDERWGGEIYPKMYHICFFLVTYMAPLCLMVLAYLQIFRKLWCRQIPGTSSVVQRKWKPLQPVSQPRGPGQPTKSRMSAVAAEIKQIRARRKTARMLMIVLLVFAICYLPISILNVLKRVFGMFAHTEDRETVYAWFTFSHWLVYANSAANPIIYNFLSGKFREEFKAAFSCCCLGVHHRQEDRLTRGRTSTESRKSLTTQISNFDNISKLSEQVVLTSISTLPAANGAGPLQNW

[5] = target: T4, Cytochrome P450 1A2 (Homo sapiens, UniProt P05177); experiment: Inhibition of CYP1A2 in human liver microsomes using phenacetin as substrate by LC-MS/MS analysis
T4 sequence (P05177 whole entry): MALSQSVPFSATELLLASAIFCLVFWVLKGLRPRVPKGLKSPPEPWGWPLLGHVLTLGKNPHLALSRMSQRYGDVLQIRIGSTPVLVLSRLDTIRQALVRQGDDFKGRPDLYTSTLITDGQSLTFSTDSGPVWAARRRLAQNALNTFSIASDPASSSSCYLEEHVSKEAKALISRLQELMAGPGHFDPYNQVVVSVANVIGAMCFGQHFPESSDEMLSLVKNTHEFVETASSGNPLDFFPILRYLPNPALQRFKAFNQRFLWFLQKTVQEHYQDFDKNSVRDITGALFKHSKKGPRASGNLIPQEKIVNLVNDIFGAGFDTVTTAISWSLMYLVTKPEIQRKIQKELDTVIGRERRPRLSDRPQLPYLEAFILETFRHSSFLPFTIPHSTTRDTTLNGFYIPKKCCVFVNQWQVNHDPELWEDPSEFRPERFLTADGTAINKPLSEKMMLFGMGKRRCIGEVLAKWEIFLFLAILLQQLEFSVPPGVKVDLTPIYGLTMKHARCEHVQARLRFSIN

[6] = Apparent permeability from basolateral to apical side in human Caco2/TC7 cells at 10 uM; settings: Caco-2
[7] = Plasma protein binding in human at 1 uM after 6 hrs by equilibrium dialysis method; type: ADME, cell-free; settings: read-out: PPB (converted)
[8] = Apparent permeability from apical to basolateral side in human Caco2/TC7 cells at 10 uM; settings: Caco-2
[9] = Half life in Sprague-Dawley rat at 1 mg/kg, iv; type: ADME, organism-based; settings: in vivo
[10] = Protein binding in rat brain at 5 uM after 5 hrs by equilibrium dialysis method; type: ADME, tissue-based; settings: read-out: PB (converted)
[11] = Plasma protein binding in rat at 1 uM after 6 hrs by equilibrium dialysis method; type: ADME, cell-free; settings: read-out: PPB (converted)
[12] = tested on: Rattus norvegicus; experiment: Ex vivo OX2 receptor occupancy in Sprague-Dawley rat brain at 30 mg/kg, po after 15 mins by autoradiographic analysis; type: functional
[13] = target: Voltage-gated inwardly rectifying potassium channel KCNH2 (Homo sapiens, UniProt Q12809); experiment: Inhibition of [3H]-astemizole binding to human ERG expressed in HEK293 cells
Chain of Voltage-gated inwardly rectifying potassium channel KCNH2 (Q12809 whole entry): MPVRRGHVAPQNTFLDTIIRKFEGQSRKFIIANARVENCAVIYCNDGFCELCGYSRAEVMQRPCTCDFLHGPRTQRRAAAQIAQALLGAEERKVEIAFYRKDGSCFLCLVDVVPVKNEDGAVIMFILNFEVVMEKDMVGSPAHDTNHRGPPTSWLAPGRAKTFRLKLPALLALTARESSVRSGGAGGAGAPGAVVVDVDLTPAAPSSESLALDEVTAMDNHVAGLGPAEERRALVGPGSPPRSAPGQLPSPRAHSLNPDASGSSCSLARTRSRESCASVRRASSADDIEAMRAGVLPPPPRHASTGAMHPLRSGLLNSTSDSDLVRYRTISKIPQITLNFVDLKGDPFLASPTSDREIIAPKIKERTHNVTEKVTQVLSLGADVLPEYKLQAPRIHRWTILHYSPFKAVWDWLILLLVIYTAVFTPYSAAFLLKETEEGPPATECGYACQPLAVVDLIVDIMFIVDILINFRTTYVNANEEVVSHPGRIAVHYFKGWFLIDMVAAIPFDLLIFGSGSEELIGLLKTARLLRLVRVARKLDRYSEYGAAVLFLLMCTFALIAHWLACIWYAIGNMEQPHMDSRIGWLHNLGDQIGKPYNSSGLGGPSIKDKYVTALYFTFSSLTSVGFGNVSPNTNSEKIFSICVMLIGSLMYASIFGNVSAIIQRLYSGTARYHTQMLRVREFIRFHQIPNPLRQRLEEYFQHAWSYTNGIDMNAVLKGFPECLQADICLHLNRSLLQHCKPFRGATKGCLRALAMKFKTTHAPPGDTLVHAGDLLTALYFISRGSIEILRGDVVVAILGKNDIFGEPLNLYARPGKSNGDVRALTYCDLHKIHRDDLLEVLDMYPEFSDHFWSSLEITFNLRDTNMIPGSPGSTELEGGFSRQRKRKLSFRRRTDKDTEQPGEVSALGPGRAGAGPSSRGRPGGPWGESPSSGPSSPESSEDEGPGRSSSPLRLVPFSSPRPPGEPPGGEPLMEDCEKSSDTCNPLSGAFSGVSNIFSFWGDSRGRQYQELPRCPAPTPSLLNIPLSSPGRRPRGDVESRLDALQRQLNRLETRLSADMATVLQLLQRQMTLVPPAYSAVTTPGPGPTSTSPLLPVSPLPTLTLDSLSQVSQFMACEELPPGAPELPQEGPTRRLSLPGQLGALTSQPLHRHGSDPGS

[14] = Clearance in Sprague-Dawley rat at 10 mg/kg, po and 1 mg/kg, iv; type: ADME, organism-based; settings: in vivo
[15] = Oral bioavailability in Sprague-Dawley rat at 10 mg/kg; type: ADME, organism-based; settings: in vivo
[16] = Volume of distribution at steady state in Sprague-Dawley rat at 10 mg/kg, po and 1 mg/kg, iv; type: ADME, organism-based; settings: in vivo, read-out: Vdss
[17] = tested on: Rattus norvegicus; experiment: Ex vivo OX2 receptor occupancy in Sprague-Dawley rat brain at 30 mg/kg, po after 30 mins by autoradiographic analysis; type: functional
[18] = Cmax in Sprague-Dawley rat at 10 mg/kg, po; type: ADME, organism-based; parameters: dose 10 mg/kg, route oral; settings: in vivo
[19] = Metabolic stability in rat liver microsomes assessed as extraction ratio at 1 uM measured over 1 hr by LC-MS/MS analysis
[20] = Metabolic stability in human liver microsomes assessed as extraction ratio at 1 uM measured over 1 hr by LC-MS/MS analysis

Ki [1] [nM] | Ki [2] [nM] | Ki [4] [nM] | IC50 [5] [nM] | Papp B→A at 10 µM [6] [×10⁻⁶ cm/s] | fraction unbound at 6 h, 1 µM [7] | Papp A→B at 10 µM [8] [×10⁻⁶ cm/s] | half-life [9] [min] | fraction unbound at 5 h, 5 µM [10] | fraction unbound at 6 h, 1 µM [11] | clearance [14] [mL/min/kg] | bioavailability [15] [%] | Vd [16] [L/kg] | Cmax [18] [ng/mL] | hepatic extraction ratio at 1 h, 1 µM [19] | hepatic extraction ratio at 1 h, 1 µM [20] | Structure (SMILES) | Occ [3] [%] | Occ [12] [%] | IC50 [13] [nM] | Occ [17] [%]
– | – | – | 3100 | 49.7 | 0.095 | 62.3 | 12 | 0.156 | 0.273 | 57 | 21 | 0.7 | – | – | – | Cc1cc(C)nc(N2C[C@H]3CN(C(=O)c4cccc(F)c4-n4nccn4)C[C@H]3C2)n1 | – | 49 | 6000 | –
14 | – | – | 9300 | 26.8 | 0.075 | 58.1 | 22.2 | – | 0.116 | 65.5 | 18 | 1.5 | – | – | – | Cc1cc(C)nc(N2C[C@H]3CN(C(=O)c4ccc(F)cc4-n4nccn4)C[C@H]3C2)n1 | – | – | > 10000 | 72
2 | – | – | – | – | – | – | 16.2 | – | – | 52.1 | 8 | 0.7 | 148 | – | – | Cc1cc(C)nc(N2C[C@H]3CN(C(=O)c4ccccc4-n4nccn4)C[C@H]3C2)n1 | – | – | > 10000 | 67

Second part, the molecule before the results:

Structure (SMILES) | Ki [1] [nM] | Ki [2] [nM] | Ki [4] [nM] | IC50 [5] [nM] | Papp B→A at 10 µM [6] [×10⁻⁶ cm/s] | fraction unbound at 6 h, 1 µM [7] | Papp A→B at 10 µM [8] [×10⁻⁶ cm/s] | half-life [9] [min] | fraction unbound at 5 h, 5 µM [10] | fraction unbound at 6 h, 1 µM [11] | clearance [14] [mL/min/kg] | bioavailability [15] [%] | Vd [16] [L/kg] | Cmax [18] [ng/mL] | hepatic extraction ratio at 1 h, 1 µM [19] | hepatic extraction ratio at 1 h, 1 µM [20] | Occ [3] [%] | Occ [12] [%] | IC50 [13] [nM] | Occ [17] [%]
Cc1cc(C)nc(N2C[C@H]3CN(C(=O)c4ccccc4-c4cccs4)C[C@H]3C2)n1 | 7 | 471 | 9.8 | – | – | – | – | – | – | – | – | – | – | – | – | – | 26 | – | – | –
Cc1cc(C)nc(N2C[C@H]3CN(C(=O)c4ccccc4-c4ncn[nH]4)C[C@H]3C2)n1 | 39 | 3650 | 30 | – | – | – | – | 22.8 | – | – | 150 | 22 | 3.9 | – | 0.51 | 0.73 | – | 0 | > 10000 | –
